The values that follow come from US5391800A, “Method for inhibition of cell motility by sphingosine-1-phosphate, its derivatives and mimetics and method of synthesizing sphingosine-1-phosphate and its derivatives” (The Biomembrane Institute, priority 1993, dated 1995).

In experiment [1] the test system is B16/F1 cells. Put plainly: Phagokinetic activity of B16/F1 cells on gold sol-coated plates. The note with it: FIGS. 11A-F, SPN-1-P at 1.0 or 0.1 μM. It is filed as cell-based, mouse. The procedure: Phagokinetic activity is measured by the ability of cells to ingest foreign particles while moving. Cell motility can be estimated as the area of a phagokinetic track on gold sol particle-coated plates as previously described {Albrecht-Buehler, Cell, 11:395 (1977)}. A uniform coating of gold particles is prepared on glass coverslips precoated with bovine serum albumin, and coverslips are rinsed repeatedly to remove non-adhering or loosely-adhering gold particles. Freshly-prepared neutrophils or tumor cells detached from culture are placed in a Petri dish containing the gold sol-coated plate, and incubated for about 2 hours (for human neutrophils) or about 18 hours (for tumor cells). The coverslips are fixed for 1 hour in a 4% formaldehyde solution in phosphate-buffered saline (PBS) and mounted on microscope slides. The phagokinetic tracks are observed on a television connected to a light microscope (Nikon, Tokyo, Japan). Tracks on the television are transferred to translucent sheets, which are then photocopied. Phagokinetic activity is quantitated by cutting and weighing the swept area in the copy.
Cell motility was estimated as the area of phagokinetic track on gold sol particle-coated plates as previously described {Albrecht-Buehler, Cell, 11:395 (1977)}. […] Phagokinetic activity was quantitated by cutting and weighing the swept area in the copy. […]

Experiment [2] deals with B16/F10 cells. Put plainly: Chemotactic motility of B16/F10 cells through MATRI-GEL-coated transwell filter. It is filed as cell-based, mouse. The procedure:
(§1) The assays for determining chemotactic cell motility and chemoinvasion can be performed using transwell plates with a polycarbonate membrane filter (pore size 8 μm) (Costar Scientific, Cambridge, Mass.). Aliguots, e.g., 50 μl, of an aqueous solution of MATRI-GEL (Collaborative Research, Bedford, Mass.) containing SPN-1-P or other inhibitor (e.g., 20 μg/ml for chemotactic motility assay or 200 μg/ml for chemoinvasion assay), is added to each well and dried overnight. The filter is then fitted onto the lower chamber plate. The lower chamber can contain conditioned medium (CM) (i.e., medium used for splenic stromal cell culture, and containing motility factor secreted by these cells), e.g., 0.6 ml, with or without SPN-1-P or other inhibitor. To the upper chamber is added, e.g., about 100 μl, of cell suspension (5×10^4 cells/ml for invasion assay, 5×10^5 cells/ml for motility assay), which is then incubated in 5% CO2 at 37° C. for 70-72 hours (invasion assay) or 20 hours (motility assay). After incubation, cells remaining in the upper chamber are wiped off with a cotton swab, and cells which had migrated to the lower chamber side of the filter are fixed in methanol for 30 seconds and stained with 0.05% toluidine blue. The filter is removed, the stain is solubilized in 10% acetic acid (e.g., 0.1 ml for invasion assay, 0.5 ml for motility assay), and color intensity (optical density) is quantitated by ELISA reading at 630 nm. Using SPN-1-P, a linear relationship was observed between cell number and toluidine blue optical density (FIG. 7).
(§2) Assays were performed using transwell plates with polycarbonate membrane filters (pore size 8 μm) (Costar Scientific, Cambridge, Mass.). 50 μl aliguots of an aqueous solution of MATRI-GEL (Collaborative Research, Bedford, Mass.) containing 20 μg/ml (for chemotactic motility assay) or 200 μg/ml (for chemoinvasion assay) were added to each well and dried overnight. The filter was fitted onto the lower chamber plate. The lower chamber contained 0.6 ml conditioned medium (CM) (i.e., medium used for splenic stromal cell culture, and containing motility factor secreted by these cells) with or without the suspected inhibitor. To the upper chamber was added 100 μl of cell suspension (5×10^4 cells/ml for invasion assay, 5×10^5 cells/ml for motility assay), which was then incubated in 5% CO2 at 37° C. for 70-72 hours (invasion assay) or 20 hours (motility assay). After incubation, cells remaining in the upper chamber were wiped off with a cotton swab, and cells which had migrated to the lower chamber side of the filter were fixed in methanol for 30 seconds and stained with 0.05% toluidine blue. The filter was removed, the stain was solubilized in 10% acetic acid (0.1 ml for invasion assay, 0.5 ml for motility assay), and color intensity (optical density) was quantitated by ELISA reading at 630 nm. A linear relationship was observed between cell number and toluidine blue optical density (FIG. 7.).
(§3) In experiments with different quantities of MATRI-GEL, cell migration through transwell filter was maximal with 1 μg/well was applied, and when CM was used (FIG. 8). Therefore, chemotactic cell motility, as affected by various SPN derivatives, was assayed under these conditions.
(§4) *Mean ± S.E. of percent relative to control (n = 4). Actual O.D. value
(§5) and 0.147 (HT1080). 6 × 10^4 cells were placed on a transwell
(§6) filter coated with 1.0 μg MATRIGEL in the upper chamber, and cultured
(§7) for 18 hours in the presence of CM and SPN1-P in the lower chamber.

Experiment [3] has as its system human fibrosarcoma HT1080 cells. Put plainly: Chemotactic motility of fibrosarcoma HT1080 cells through MATRI-GEL-coated transwell filter. It is filed as cell-based. The procedure: as §1, §2, §3, §4, §5, §6, §7
In experiment [4] the test system is Balb/c 3T3 fibroblasts. Put plainly: Chemotactic motility of Balb/c 3T3 fibroblasts through MATRI-GEL-coated transwell filter. The note with it: Mus musculus, 18 hours, relative to control, mean ± S.E., n = 4. The experiment is classed as cell-based. The procedure:
as §1, §2, §3, §4, §5, §6, §7

The test system of experiment [5] is mouse 3T3 cell. The settings on record: literature; cited from earlier work.

With `CCCCCCCCCCCCC/C=C/[C@@H](O)[C@@H](N)COP(=O)(O)O` [SPN-1-P, sphingosine-1-phosphate], the “Area cleared by tumor cells” value in experiment [1] is recorded as “greatly reduced”. The activity at 0.001 µM in experiment [2] (Mus musculus, B16-F10, F10, 0.001 μM, 18 hours, relative to control, mean ± S.E., n = 4) amounted to 96 ± 21%; in experiment [3] (Homo sapiens, HT-1080, HT1080, 0.001 μM, 18 hours, relative to control, mean ± S.E., n = 4), 100 ± 21%; in experiment [4] (BALB/c3T3, 0.001 μM), 119 ± 9%. Further, the activity at 0.01 µM came out at 10 ± 4% in experiment [2] (Mus musculus, B16-F10, F10, 0.01 μM, 18 hours, relative to control, mean ± S.E., n = 4); 100 ± 30% in experiment [3] (Homo sapiens, HT-1080, HT1080, 0.01 μM, 18 hours, relative to control, mean ± S.E., n = 4); 125 ± 5% in experiment [4] (BALB/c3T3, 0.01 μM). In addition, the activity at 0.1 µM is 4 ± 2% in experiment [2] (Mus musculus, B16-F10, F10, 0.1 μM, 18 hours, relative to control, mean ± S.E., n = 4); 115 ± 35% in experiment [3] (Homo sapiens, HT-1080, HT1080, 0.1 μM, 18 hours, relative to control, mean ± S.E., n = 4); 101 ± 10% in experiment [4] (BALB/c3T3, 0.1 μM). The activity at 1 µM turned out to be 4 ± 1% in experiment [2] (Mus musculus, B16-F10, F10, 1.0 μM, 18 hours, relative to control, mean ± S.E., n = 4); 105 ± 14% in experiment [3] (Homo sapiens, HT-1080, HT1080, 1.0 μM, 18 hours, relative to control, mean ± S.E., n = 4); 40 ± 1% in experiment [4] (BALB/c3T3, 1.0 μM). Also, the “Susceptibility of B16/F10 cells (chemotactic motility)” value in experiment [2] (Table V, in words) is “high”. For the same compound, the activity at 5 µM in experiment [3] (Homo sapiens, HT-1080, HT1080, 5.0 μM, 18 hours, relative to control, mean ± S.E., n = 4) was determined as 64 ± 4%; in experiment [4] (BALB/c3T3, 5.0 μM), 11 ± 1%. Also, in experiment [3] (Table V, in words), the “Susceptibility of human fibrosarcoma HT1080 cells (chemotactic motility)” value was “low”.

`CCCCCCCCCCCCC/C=C/[C@@H](O)[C@@H](N)CO` [SPN, sphingosine]: the “Area cleared by tumor cells” value in experiment [1] was “reduced the area cleared by tumor cells”. For the same compound, the “Mouse 3T3 cell growth” value in experiment [5] is given as “stimulation of mouse 3T3 cell growth”.
